{"source": "paper PMC5719457", "about": "“Pseudomonas aeruginosa zinc uptake in chelating environment is primarily mediated by the metallophore pseudopaline” (Scientific Reports, 2017)", "key": {"[1]": {"molecular_target": "T1, PaCntL (Pseudomonas aeruginosa, UniProt A0A0H2ZHV3)", "T1 construct": "gene cntL; full length, C-terminal His6 tag (pET22b+), E. coli BL21", "T1 sequence (A0A0H2ZHV3 whole entry)": "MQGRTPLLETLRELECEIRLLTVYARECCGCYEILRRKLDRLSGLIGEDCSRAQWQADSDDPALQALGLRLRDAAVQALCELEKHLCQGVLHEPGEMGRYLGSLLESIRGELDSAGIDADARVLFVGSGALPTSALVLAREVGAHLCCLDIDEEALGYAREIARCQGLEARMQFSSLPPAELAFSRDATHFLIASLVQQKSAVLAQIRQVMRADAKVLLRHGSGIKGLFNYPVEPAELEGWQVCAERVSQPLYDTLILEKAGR", "assay": "TLC with […]-SAM; HILIC/ESI-MS", "assay_type": "biochemical", "settings": "product yNA"}, "[2]": {"molecular_target": "T2, PaCntM (Pseudomonas aeruginosa, UniProt A0A0H2ZH12)", "T2 construct": "gene cntM; full length, N-terminal His6 tag (TEV-cleavable, pET-TEV), E. coli BL21", "T2 sequence (A0A0H2ZH12 whole entry)": "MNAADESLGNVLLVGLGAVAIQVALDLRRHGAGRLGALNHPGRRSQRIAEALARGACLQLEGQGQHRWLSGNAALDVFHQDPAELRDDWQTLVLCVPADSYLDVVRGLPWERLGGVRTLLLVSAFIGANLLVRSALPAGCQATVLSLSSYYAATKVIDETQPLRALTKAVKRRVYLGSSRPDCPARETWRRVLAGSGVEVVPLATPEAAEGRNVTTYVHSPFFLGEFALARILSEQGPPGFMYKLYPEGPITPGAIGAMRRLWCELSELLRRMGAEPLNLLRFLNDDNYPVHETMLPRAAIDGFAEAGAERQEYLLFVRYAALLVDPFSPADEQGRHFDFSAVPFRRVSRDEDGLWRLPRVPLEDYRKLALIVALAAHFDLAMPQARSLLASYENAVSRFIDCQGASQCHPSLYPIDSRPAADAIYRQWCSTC", "assay": "fluorescence resonance energy transfer titration (Trp to NAD(P)H)", "assay_type": "binding"}}, "data": [{"compound": "N[C@@H](Cc1cnc[nH]1)C(=O)O", "note": "[L-histidine]", "values": [{"measurement": "TLC with [14C]-SAM; HILIC/ESI-MS", "setting": "[1]; co-substrate SAM", "result": "Only the incubation with L-histidine led to a novel band"}]}, {"compound": "C[S+](CC[C@H](N)C(=O)O)C[C@H]1O[C@@H](n2cnc3c(N)ncnc32)[C@H](O)[C@@H]1O", "note": "(stereo partly drawn) [SAM]", "values": [{"measurement": "TLC with [14C]-SAM; HILIC/ESI-MS", "setting": "[1]; co-substrate L-histidine, labelled compound (carboxyl-14C) in TLC", "result": "incubation of PaCntL with SAM and L-histidine led to the formation of the yNA"}]}, {"compound": "NC(=O)C1=CN([C@@H]2O[C@H](COP(=O)(O)OP(=O)(O)OC[C@H]3O[C@@H](n4cnc5c(N)ncnc54)[C@H](O)[C@@H]3O)[C@@H](O)[C@H]2O)C=CC1", "note": "[NADH]", "values": [{"measurement": "Kd", "setting": "[2]", "result": 30, "unit": "µM"}]}]}
